According to PubChem BioAssay (NCI):
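Five compound concentrations were applied to cells in 96-well plates for 48 hours; endpoints were derived by simple linear interpolation of the resulting dose-response curve. GI50 = concentration required for 50% inhibition of growth. TGI is the concentration that stops growth completely.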

Legend:
Assay in all cases: NCI anticancer screen, dose series, 48 h
NCI-H226 lung = system: NCI-H226 lung
NCI-H23 lung = system: NCI-H23 lung
NCI-H460 lung = system: NCI-H460 lung
NCI-H522 lung = system: NCI-H522 lung
OVCAR-3 ovarian = system: OVCAR-3 ovarian
OVCAR-4 ovarian = system: OVCAR-4 ovarian
OVCAR-5 ovarian = system: OVCAR-5 ovarian
OVCAR-8 ovarian = system: OVCAR-8 ovarian
PC-3 prostate = system: PC-3 prostate
RPMI-8226 leukemia = system: RPMI-8226 leukemia
RXF 393 renal = system: RXF 393 renal
SF-268 CNS = system: SF-268 CNS
SF-295 CNS = system: SF-295 CNS
SF-539 CNS = system: SF-539 CNS
SK-MEL-2 melanoma = system: SK-MEL-2 melanoma
SK-MEL-28 melanoma = system: SK-MEL-28 melanoma
SK-MEL-5 melanoma = system: SK-MEL-5 melanoma
SK-OV-3 ovarian = system: SK-OV-3 ovarian
SN12C renal = system: SN12C renal
SNB-19 CNS = system: SNB-19 CNS
SNB-75 CNS = system: SNB-75 CNS
SR leukemia = system: SR leukemia
SW-620 colon = system: SW-620 colon
T-47D breast = system: T-47D breast
TK-10 renal = system: TK-10 renal
U251 CNS = system: U251 CNS
UACC-257 melanoma = system: UACC-257 melanoma
UACC-62 melanoma = system: UACC-62 melanoma
UO-31 renal = system: UO-31 renal

## CC1=C(C)C(=O)C(NCCN2CCOCC2)=C(Br)C1=O
NCI-H226 lung
  GI50: 12.1 µM
  TGI: 26.7 µM
NCI-H23 lung
  GI50: 3.84 µM
  TGI: 16.3 µM
NCI-H460 lung
  GI50: 16.1 µM
  TGI: 34.2 µM
NCI-H522 lung
  GI50: 3.01 µM
  TGI: 11.7 µM
OVCAR-3 ovarian
  GI50: 2.1 µM
  TGI: 7.16 µM
OVCAR-4 ovarian
  GI50: 5.02 µM
  TGI: 17.6 µM
OVCAR-5 ovarian
  GI50: 6.43 µM
  TGI: 19.3 µM
OVCAR-8 ovarian
  GI50: 3.84 µM
  TGI: 15.8 µM
PC-3 prostate
  GI50: 16.9 µM
  TGI: 50.6 µM
RPMI-8226 leukemia
  GI50: 13.9 µM
  TGI: 55 µM
RXF 393 renal
  GI50: 12.7 µM
  TGI: 25.3 µM
SF-268 CNS
  GI50: 12.8 µM
  TGI: 32 µM
SF-295 CNS
  GI50: 17.8 µM
  TGI: 31.9 µM
SF-539 CNS
  GI50: 17 µM
  TGI: 31.5 µM
SK-MEL-2 melanoma
  GI50: 11.7 µM
  TGI: 24.2 µM
SK-MEL-28 melanoma
  GI50: 14.5 µM
  TGI: 28 µM
SK-MEL-5 melanoma
  GI50: 11.6 µM
  TGI: 23.8 µM
SK-OV-3 ovarian
  GI50: 12.5 µM
  TGI: 25.2 µM
SN12C renal
  GI50: 14.9 µM
  TGI: 28.2 µM
SNB-19 CNS
  GI50: 16.3 µM
  TGI: 30.5 µM
SNB-75 CNS
  GI50: 18.5 µM
  TGI: 34.2 µM
SR leukemia
  GI50: 19.2 µM
  TGI: 66.7 µM
SW-620 colon
  GI50: 2.94 µM
  TGI: 14 µM
T-47D breast
  GI50: 2.01 µM
  TGI: 4.74 µM
TK-10 renal
  GI50: 19.2 µM
  TGI: 33.3 µM
U251 CNS
  GI50: 12 µM
  TGI: 25.2 µM
UACC-257 melanoma
  GI50: 2.55 µM
  TGI: 7 µM
UACC-62 melanoma
  GI50: 5.78 µM
  TGI: 18.4 µM
UO-31 renal
  GI50: 11 µM
  TGI: 23.2 µM
